Assay results from ChEMBL document CHEMBL4765318 (Eur J Med Chem, 2020).
The source made the active and inactive calls. The calls are words filed in the database; no cut-off is given here.

Experiments:
Raji = assay: Antiproliferative activity against human Raji cells assessed as reduction in cell viability incubated for 24 hrs by CCK-8 assay; type: functional, cell-based
[1] = biological target: T1, Tyrosine-protein kinase BTK (Homo sapiens, UniProt Q06187); details: dose 100.0 nM
Description: Inhibition of BTK (unknown origin) at 100 nM by ADP-Glo assay relative to control

[2] = biological target: T1, Tyrosine-protein kinase BTK; assay: Inhibition of BTK (unknown origin) by ADP-Glo assay
Ramos [3] = assay: Antiproliferative activity against human Ramos cells assessed as reduction in cell viability incubated for 24 hrs by CCK-8 assay; type: functional, cell-based
[4] = biological target: Proto-oncogene tyrosine-protein kinase Src (Homo sapiens, UniProt P12931); assay: Inhibition of SRC (unknown origin) by ADP-Glo assay
[5] = biological target: T2, Tyrosine-protein kinase ITK/TSK (Homo sapiens, UniProt Q08881); assay: Inhibition of ITK (unknown origin) by ADP-Glo assay
T2 sequence (Q08881 whole entry): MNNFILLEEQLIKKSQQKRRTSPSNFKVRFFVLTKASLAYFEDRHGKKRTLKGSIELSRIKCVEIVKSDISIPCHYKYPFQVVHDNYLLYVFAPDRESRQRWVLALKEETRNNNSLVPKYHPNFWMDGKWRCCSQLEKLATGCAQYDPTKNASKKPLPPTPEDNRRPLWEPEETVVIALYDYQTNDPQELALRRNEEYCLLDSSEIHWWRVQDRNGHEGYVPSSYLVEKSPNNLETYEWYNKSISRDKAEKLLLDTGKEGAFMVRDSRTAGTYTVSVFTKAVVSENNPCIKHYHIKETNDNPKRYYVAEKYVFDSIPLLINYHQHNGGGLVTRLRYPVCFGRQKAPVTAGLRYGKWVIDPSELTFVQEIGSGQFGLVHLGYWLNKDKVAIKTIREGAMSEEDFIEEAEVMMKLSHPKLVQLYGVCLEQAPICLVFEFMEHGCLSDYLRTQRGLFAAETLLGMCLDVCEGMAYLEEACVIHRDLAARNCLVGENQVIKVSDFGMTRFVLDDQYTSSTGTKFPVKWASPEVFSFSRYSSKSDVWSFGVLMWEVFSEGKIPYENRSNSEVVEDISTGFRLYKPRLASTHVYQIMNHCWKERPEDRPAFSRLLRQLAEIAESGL

[6] = biological target: T1, Tyrosine-protein kinase BTK; assay: Inhibition of BTK in human Ramos cells assessed as reduction in BTK phosphorylation at Tyr223 residue at 10 uM incubated for 24 hrs by Western blot analysis; type: cell-based
Ramos [7] = assay: Induction of apoptosis in human Ramos cells assessed as late apoptotic cells at 5 uM incubated for 24 hrs by annexin V-FITC and PI staining based flow cytometry analysis (reference value: 2.2 %); type: functional
[8] = biological target: T1, Tyrosine-protein kinase BTK; assay: Inhibition of BTK in human TMD8 cells assessed as reduction in cell proliferation incubated for 24 hrs by CCK-8 assay; type: cell-based
Ramos [9] = assay: Induction of cell cycle arrest in human Ramos cells assessed as G2/M phase accumulation at 5 uM incubated for 24 hrs by PI staining based flow cytometry analysis (reference value: 20.96 %); type: functional
[10] = biological target: T1, Tyrosine-protein kinase BTK; assay: Inhibition of BTK in human Ramos cells assessed as reduction in BTK phosphorylation at Tyr223 residue at 10 uM incubated for 4 hrs by Western blot analysis relative to control; type: cell-based
[11] = biological target: T1, Tyrosine-protein kinase BTK; assay: Inhibition of BTK in human Ramos cells assessed as reduction in PLCgamma2 phosphorylation at Tyr557 residue at 3 uM incubated for 24 hrs by Western blot analysis; type: cell-based
Ramos [12] = assay: Induction of cell cycle arrest in human Ramos cells assessed as G0/G1 phase accumulation at 5 uM incubated for 24 hrs by PI staining based flow cytometry analysis (reference value: 39.13 %); type: functional
Ramos [13] = assay: Induction of apoptosis in human Ramos cells assessed as early apoptotic cells at 5 uM incubated for 24 hrs by annexin V-FITC and PI staining based flow cytometry analysis (reference value: 1.9 %); type: functional
Ramos [14] = assay: Induction of cell cycle arrest in human Ramos cells assessed as S phase accumulation at 5 uM incubated for 24 hrs by PI staining based flow cytometry analysis (reference value: 37.38 %); type: functional
Ramos [15] = assay: Induction of apoptosis in human Ramos cells assessed as necrotic cells at 5 uM incubated for 24 hrs by annexin V-FITC and PI staining based flow cytometry analysis (reference value: 2.1 %); type: functional
Ramos [16] = assay: Induction of apoptosis in human Ramos cells assessed as viable cells at 5 uM incubated for 24 hrs by annexin V-FITC and PI staining based flow cytometry analysis (reference value: 93.8 %); type: functional
[17] = biological target: T1, Tyrosine-protein kinase BTK; assay: Inhibition of BTK in human Ramos cells assessed as reduction in BTK phosphorylation at Tyr223 residue at 10 uM incubated for 4 hrs followed by compound wash-out and measured upto 24 hrs by Western blot analysis; type: cell-based
[18] = biological target: Epidermal growth factor receptor (Homo sapiens, UniProt P00533); assay: Inhibition of EGFR (unknown origin) by ADP-Glo assay
Ramos [19] = assay: Induction of cell cycle arrest in human Ramos cells assessed as subG1 phase accumulation at 5 uM incubated for 24 hrs by PI staining based flow cytometry analysis (reference value: 2.53 %); type: functional
[20] = biological target: Tyrosine-protein kinase Blk (Homo sapiens, UniProt P51451); assay: Inhibition of BLK (unknown origin) by ADP-Glo assay
Chain of Tyrosine-protein kinase Blk (P51451 whole entry): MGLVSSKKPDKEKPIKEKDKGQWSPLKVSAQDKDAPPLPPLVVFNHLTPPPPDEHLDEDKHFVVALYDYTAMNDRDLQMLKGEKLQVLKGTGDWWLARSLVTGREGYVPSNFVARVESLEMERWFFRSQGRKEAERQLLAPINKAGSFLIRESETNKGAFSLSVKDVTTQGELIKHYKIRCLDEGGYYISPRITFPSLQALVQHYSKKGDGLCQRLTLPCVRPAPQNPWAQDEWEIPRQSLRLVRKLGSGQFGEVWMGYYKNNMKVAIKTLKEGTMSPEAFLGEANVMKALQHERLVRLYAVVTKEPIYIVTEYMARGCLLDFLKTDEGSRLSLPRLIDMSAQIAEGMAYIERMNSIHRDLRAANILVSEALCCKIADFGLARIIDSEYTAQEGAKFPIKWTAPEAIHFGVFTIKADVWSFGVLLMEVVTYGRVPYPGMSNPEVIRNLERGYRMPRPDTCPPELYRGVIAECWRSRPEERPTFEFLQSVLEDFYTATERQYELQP

T1 sequence (Q06187 whole entry): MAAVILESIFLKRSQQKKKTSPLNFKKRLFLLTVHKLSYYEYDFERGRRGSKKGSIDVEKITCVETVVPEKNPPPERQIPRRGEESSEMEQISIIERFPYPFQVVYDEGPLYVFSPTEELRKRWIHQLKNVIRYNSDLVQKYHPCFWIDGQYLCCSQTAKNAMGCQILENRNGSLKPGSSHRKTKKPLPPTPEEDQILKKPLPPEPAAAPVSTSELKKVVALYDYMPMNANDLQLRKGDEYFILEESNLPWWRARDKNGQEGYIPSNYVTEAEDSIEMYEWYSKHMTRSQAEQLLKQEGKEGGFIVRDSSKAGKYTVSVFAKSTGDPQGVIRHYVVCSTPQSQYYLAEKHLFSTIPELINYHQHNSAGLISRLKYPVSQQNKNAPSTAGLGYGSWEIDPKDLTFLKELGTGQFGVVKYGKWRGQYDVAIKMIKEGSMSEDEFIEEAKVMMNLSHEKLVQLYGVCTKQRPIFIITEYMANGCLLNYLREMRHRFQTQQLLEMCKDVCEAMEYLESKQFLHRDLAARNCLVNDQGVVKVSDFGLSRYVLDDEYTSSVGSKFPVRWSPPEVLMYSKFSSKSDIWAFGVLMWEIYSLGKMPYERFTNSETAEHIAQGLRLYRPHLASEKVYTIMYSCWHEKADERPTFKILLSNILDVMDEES
Chain of Epidermal growth factor receptor (P00533 whole entry): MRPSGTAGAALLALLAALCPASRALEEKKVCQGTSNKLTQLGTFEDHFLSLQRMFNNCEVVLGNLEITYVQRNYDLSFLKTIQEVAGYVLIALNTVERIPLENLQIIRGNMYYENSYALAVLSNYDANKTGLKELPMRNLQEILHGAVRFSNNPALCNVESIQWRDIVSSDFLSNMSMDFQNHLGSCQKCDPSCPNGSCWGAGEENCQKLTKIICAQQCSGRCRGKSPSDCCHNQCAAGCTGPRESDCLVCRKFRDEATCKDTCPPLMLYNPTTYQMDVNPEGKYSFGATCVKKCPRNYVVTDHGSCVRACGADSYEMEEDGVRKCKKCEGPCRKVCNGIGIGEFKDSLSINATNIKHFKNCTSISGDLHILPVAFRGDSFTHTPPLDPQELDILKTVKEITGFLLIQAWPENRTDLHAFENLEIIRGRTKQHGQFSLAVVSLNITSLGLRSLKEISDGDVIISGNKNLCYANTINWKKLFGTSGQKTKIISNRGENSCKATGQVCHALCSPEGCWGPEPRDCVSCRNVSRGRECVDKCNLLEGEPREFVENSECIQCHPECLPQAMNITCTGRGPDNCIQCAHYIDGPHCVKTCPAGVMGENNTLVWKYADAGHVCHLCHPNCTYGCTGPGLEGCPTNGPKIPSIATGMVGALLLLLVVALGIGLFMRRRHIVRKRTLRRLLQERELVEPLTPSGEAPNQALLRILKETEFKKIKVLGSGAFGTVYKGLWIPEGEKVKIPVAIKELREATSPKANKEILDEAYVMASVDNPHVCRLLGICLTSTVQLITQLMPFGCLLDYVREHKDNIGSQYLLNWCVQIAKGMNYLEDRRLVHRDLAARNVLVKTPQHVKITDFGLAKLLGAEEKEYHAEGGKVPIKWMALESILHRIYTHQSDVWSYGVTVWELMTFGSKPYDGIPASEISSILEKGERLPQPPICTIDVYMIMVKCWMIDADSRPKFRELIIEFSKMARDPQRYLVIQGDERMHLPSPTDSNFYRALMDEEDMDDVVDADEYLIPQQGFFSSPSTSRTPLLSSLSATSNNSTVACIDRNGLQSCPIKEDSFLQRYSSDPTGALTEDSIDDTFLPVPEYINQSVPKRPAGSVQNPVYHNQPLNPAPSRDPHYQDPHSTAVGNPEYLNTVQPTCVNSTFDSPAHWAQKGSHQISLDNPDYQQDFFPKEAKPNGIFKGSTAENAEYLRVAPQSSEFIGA
Chain of Proto-oncogene tyrosine-protein kinase Src (P12931 2-536 limits assumed): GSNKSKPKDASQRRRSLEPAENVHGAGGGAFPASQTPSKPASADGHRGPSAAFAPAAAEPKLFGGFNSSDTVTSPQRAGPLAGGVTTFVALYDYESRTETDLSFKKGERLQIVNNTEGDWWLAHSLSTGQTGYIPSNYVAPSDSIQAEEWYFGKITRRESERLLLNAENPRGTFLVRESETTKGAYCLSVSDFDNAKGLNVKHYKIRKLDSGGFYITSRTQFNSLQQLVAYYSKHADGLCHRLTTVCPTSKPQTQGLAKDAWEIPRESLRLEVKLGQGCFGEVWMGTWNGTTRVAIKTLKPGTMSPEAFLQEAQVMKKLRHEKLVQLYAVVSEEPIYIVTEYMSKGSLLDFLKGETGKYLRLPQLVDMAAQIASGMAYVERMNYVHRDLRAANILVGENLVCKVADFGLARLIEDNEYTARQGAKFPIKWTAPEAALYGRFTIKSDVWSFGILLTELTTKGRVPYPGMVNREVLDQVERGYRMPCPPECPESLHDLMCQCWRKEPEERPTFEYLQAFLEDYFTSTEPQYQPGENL

| Compound | IC50 (Raji) | inhibition [1] | IC50 (Ramos [3]) | also measured |
| --- | --- | --- | --- | --- |
| C=CC(=O)N1CCc2ccc(Nc3ncnc(Nc4ccc(C(=O)N5CCCCC5)cc4)n3)cc21 | 2.84 µM | 75.8% |  | IC50 [2]: 0.0543 µM |
| C=CC(=O)Nc1cccc(Nc2ncnc(Nc3ccc(OCCOC)cc3)n2)c1 | 105 µM | 57.1% | 181 µM |  |
| C=CC(=O)Nc1cccc(Nc2ncnc(Nc3ccc(-c4cccnc4)cc3)n2)c1 | 12.4 µM | 66.6% | > 100 µM |  |
| C/C=C/C(=O)Nc1cccc(Nc2ncnc(Nc3ccc(C(=O)N4CCCCC4)cc3)n2)c1 | 13.8 µM | 4.8% | 13.2 µM | IC50 [2]: > 1 µM |
| C=CC(=O)Nc1cccc(Nc2nc(Cl)nc(Nc3ccc(OCCOC)cc3)n2)c1 |  | 10% |  |  |
| C=CC(=O)Nc1cccc(Nc2ncnc(Nc3ccc(Oc4ccc(OC)cc4)cc3)n2)c1 |  | 23.4% | > 100 µM |  |
| C=CC(=O)Nc1cccc(Nc2nc(N)nc(Nc3ccc(OCCOC)cc3)n2)c1 | 18.3 µM | 27.7% | 18.9 µM |  |
| C=CC(=O)Nc1cccc(Nc2nc(Cl)nc(Nc3ccc(Oc4ccccc4)cc3)n2)c1 | 15.7 µM | 7.3% | 12.3 µM |  |
| C=CC(=O)Nc1cccc(Nc2ncnc(Nc3ccc(C(=O)Nc4ccccn4)cc3)n2)c1 | 15.6 µM | 56.3% |  |  |
| C=CC(=O)Nc1cccc(Nc2nc(N)nc(Nc3ccc(Oc4ccccc4)cc3)n2)c1 | 8.32 µM | 17.1% | 20 µM |  |
| CC#CC(=O)Nc1cccc(Nc2ncnc(Nc3ccc(C(=O)N4CCCCC4)cc3)n2)c1 | 4.62 µM | 8.9% | 24.4 µM | IC50 [2]: > 1 µM |
| C=CC(=O)Nc1cccc(Nc2ncnc(Nc3ccc(C(=O)N4CCOCC4)cc3)n2)c1 | 22.2 µM | 77.5% | 13.2 µM |  |
| C=CC(=O)Nc1cccc(Nc2ncnc(Nc3ccc(-c4ccc(C)nc4)cc3)n2)c1 | 13.8 µM | 55.7% |  |  |
| C=CC(=O)Nc1cc(Nc2ncnc(Nc3ccc(C(=O)N4CCCCC4)cc3)n2)ccc1C | 30.6 µM | 39.1% | 48.5 µM | IC50 [2]: 0.146 µM |
| C=CC(=O)Nc1cccc(Nc2ncnc(Nc3ccc(C(=O)N4CCCCC4)cc3)n2)c1 | 5.14 µM | 91.1% | 6.14 µM | IC50 [4]: 0.524 µM; IC50 [5]: 2.62 µM; inhibition [6]: Active; Activity (Ramos [7]): 10.8%; inhibition [8]: Dose-dependent effect; Activity (Ramos [9]): 25.14%; inhibition [10]: 100%; inhibition [11]: Active; Activity (Ramos [12]): 29.23%; Activity (Ramos [13]): 2.1%; Activity (Ramos [14]): 35.2%; Activity (Ramos [15]): 2.4%; viability at 5 µM (Ramos [16]; Homo sapiens, Ramos, read-out: Activity): 84.7%; inhibition [17]: Active; IC50 [18]: 0.031 µM; IC50 [2]: 0.021 µM; Activity (Ramos [19]): 10.43%; IC50 [20]: 0.594 µM |
| C=CC(=O)Nc1cccc(Nc2ncnc(Nc3ccc(C(=O)Nc4ccc(C)cn4)cc3)n2)c1 | 125 µM | 41.6% | > 100 µM |  |
| C=CC(=O)N1CCC[C@@H](n2nc(-c3ccc(Oc4ccccc4)cc3)c3c(N)ncnc32)C1 [IBRUTINIB] | 12.6 µM |  | 1.35 µM | Activity (Ramos [7]): 12.5%; Activity (Ramos [9]): 26.95%; Activity (Ramos [12]): 28.72%; Activity (Ramos [13]): 1.9%; Activity (Ramos [14]): 29.22%; Activity (Ramos [15]): 3.5%; Activity (Ramos [16]): 82.1%; Activity (Ramos [19]): 15.11% |
| C=CC(=O)Nc1cccc(Nc2ncnc(Nc3ccc(-c4ccc(F)nc4)cc3)n2)c1 | 3.25 µM | 46.8% | 59.2 µM |  |
| C=CC(=O)Nc1cccc(Nc2ncnc(Nc3ccc(-c4ccc(OC)nc4)cc3)n2)c1 |  | 32.7% |  |  |
| C=CC(=O)Nc1cccc(Nc2ncnc(Nc3ccc(-c4ccc(Cl)nc4)cc3)n2)c1 |  | 36.7% | 160 µM |  |
